Common to all, as to format: physicochemical
A short description of data set [1]: Brine solubilities of surfactant concentrates. To be noted: 5.0% by weight surfactant concentrate, 30° C.; for Brine solubility, BRINE 1: Brine 1: NaCl 3.0%, CaCl2-2H2O 1.0%, MgCl2-6H2O 1.0%; for Brine solubility, BRINE 2: Brine 2: NaCl 1.0%; for Brine solubility, BRINE 3: Brine 3: NaCl 5.0%; for Brine solubility, BRINE 4: Brine 4: NaCl 10%; for Brine solubility, BRINE 5: Brine 5: NaCl 20%. On the procedure: (§1) In all cases the surfactant formulation consisted of 30% by weight surfactant, 25% by weight ethylene glycol monobutyl ether (co-surfactant/solvent), and 45% by weight water. Also in all cases except where noted the surfactant formulation was added to the injection brine at a concentration of 0.10 weight percent. These examples use surfactants containing only ethylene oxide in the alcohol ether carboxylate although products containing propylene oxide and ethylene oxide give good results in certain applications.
(§2) Table II is the brine compositions that were used for the IFT testing to show the effect of total dissolved solids and divalent ion concentration on the IFT obtained using various surfactants.
Table III compares the solubilities obtained with 5.0% by weight of various surfactant concentrates in the 5 brines at 30° C.

A short description of data set [2]: Interfacial tension (IFT) by spinning drop interfacial tensiometer. The note with it: 0.10 wt % surfactant, 95° C., spinning 1 hour; for IFT, BRINE 1: Brine 1: NaCl 3.0%, CaCl2-2H2O 1.0%, MgCl2-6H2O 1.0%; for IFT, BRINE 2: Brine 2: NaCl 1.0%; for IFT, BRINE 3: Brine 3: NaCl 5.0%; for IFT, BRINE 4: Brine 4: NaCl 10%; for IFT, BRINE 5: Brine 5: NaCl 20%. The procedure: as §1, §2
All IFTs were obtained using a University of Texas Model 500 spinning drop interfacial tensiometer after spinning at 95° C. for 1 hour.

A further data set is described as follows: Static adsorption test. The text has this: Table VII compares the adsorption of the composition of this invention surfactant B with a 1:1 molar mixture of surfactant D and surfactant E to show the effectiveness of having both the sulfonate and ether carboxylate on one molecule. 0.2 wt % surfactant D and 0.2 wt % surfactant E alone were also included to correct for the amount of each of these surfactants adsorbed. All tests were done using 0.20 wt % total surfactant in Brine 2. The static adsorption was run by mixing 50.0 grams of surfactant solution with 10.0 grams of 200 mesh beach sand on a wrist action shaker for 16 hours and then determining the amount of surfactant remaining compared to the original amount added.

[3] abbreviates: 0.20 wt % total surfactant in Brine 2, 16 hours.

For “Sodium salt of carboxylated oleyl alcohol with 2 moles of EO. [Surfactant C]”, in data set [1], the “Brine solubility, BRINE 1” value was “dis-”; the “Brine solubility, BRINE 2” value was “soluble”; the “Brine solubility, BRINE 3” value is “soluble”; the “Brine solubility, BRINE 4” value is on record as “soluble”. Moreover, in data set [1], the “Brine solubility, BRINE 5” value was “dis-”. Moreover, in data set [2], the “IFT, BRINE 1” value turned out to be 0.769 mN/m; the “IFT, BRINE 2” value came out at 0.070 mN/m; the “IFT, BRINE 3” value was 0.090 mN/m; the “IFT, BRINE 4” value was 0.122 mN/m. Further, in data set [2], the “IFT, BRINE 5” value is reported as 0.256 mN/m.
As to “Sodium salt of carboxylated oleyl alcohol with 9 moles of EO. [Surfactant D]”, in data set [1], the “Brine solubility, BRINE 1” value is given as “soluble”; the “Brine solubility, BRINE 2” value is “soluble”; the “Brine solubility, BRINE 3” value was “soluble”; the “Brine solubility, BRINE 4” value was “soluble”. In addition, the “Brine solubility, BRINE 5” value in data set [1] was “soluble”. In addition, in data set [2], the “IFT, BRINE 1” value was found to be 0.066 mN/m; the “IFT, BRINE 2” value turned out to be 0.031 mN/m; the “IFT, BRINE 3” value was 0.022 mN/m; the “IFT, BRINE 4” value is 0.020 mN/m. For the same substance, the “IFT, BRINE 5” value in data set [2] turned out to be 0.020 mN/m. For the same substance, in the data set “Static adsorption test” (setting [3]), the “% adsorbed” value is given as 78% and the “amount adsorbed in mg surfactant/gram sand” value is listed as 7.8 mg/g. Further, the Amount remaining in “Static adsorption test” (of 0.100 g original wt, 0.20 wt % total surfactant in Brine 2, 50.0 g solution with 10.0 g sand, 16 hours) came to 0.022. In “Static adsorption test” (of 0.100 g original wt, 0.20 wt % total surfactant in Brine 2, 16 hours), this substance gave an Adsorbed of 0.078.

The values are drawn from US7863476B1, “Multifunctional anionic surfactants” (Oil Chem Technologies, priority 2009, dated 2011).
